Assay results as given in patent publication US5635486A, “Ophthalmic composition comprising a sleep adjusting substance” (priority 1990, dated 1997).
Like-named read-outs stand apart in the source and are kept apart here.

How the values were obtained:
[1] = into a lateral ventricle, rat; cited from earlier work
mice = experiment: Locomotor activity of mice after instillation of ophthalmic medicament to the eye (Automex, total activity ratio per hour vs saline); assay type: in vivo, mouse (ICR male); conditions: for time when the mice started to move / total activity ratio / locomotor activity (in words) / Total Activity ratio per hour / pain or itch in the eyes as cause of the sleep inhibition: instilled to mouse eye; for sleep inducing or inhibiting activity (in words): by instillation to mouse eye; for Total Activity ratio per hour: 19:30-20:30
Description: Three ICR male mice were put in a cage and bred under the condition of a day-and-night cycle of every 12 hours (the daytime: from 7:35 to 19:35; the nighttime: from 19:35 to 7:35) for an experiment.
In this manner, the mice were habituated to the instillation by administering the saline every day. After the same activity pattern appeared for two days continuously, an ophthalmic medicament containing a desired sleep adjusting substance was instilled for consecutive two days. The ophthalmic medicament was prepared by dissolving the sleep adjusting substance in saline. […] The locomotor activity (unit: count) of mice was measured every 10 minutes by using a measuring device for the locomotor activity of an experimental animal "Automex" (produced by Tokai Irika). The locomotor activity was measured by putting a mouse on the measuring device. Every time any of the mice moved, a counter of the device cumulated the number of the movements. Thus, the larger cumulated number reflected more energetic activity. Such a measurement was conducted twice (for two days). An average value of the locomotor activity at each time was calculated and the results were plotted to obtain a graph, with time as the abscissas and the average locomotor activity as the ordinates. This graph depicts an activity pattern of the mice as a function of an administration of the ophthalmic medicament. A total of the locomotor activity (i.e., an area below the curve in the graph) per one hour between 19: 30 which is 30 minutes after the administration and 20:30 was calculated. In the same manner, as for the mice with the administration of saline alone, a total locomotor activity per the same one hour period as above was calculated. The ratio (%) of the calculated total locomotor activity per one hour of the mice with saline alone to that of the mice with the administration of the ophthalmic medicament (hereinafter called the "total activity ratio") was obtained. The mice whose activity patterns were not stable during the habituation to the administration of saline were not used in the following examples.

[2] = cited from earlier work; for sleep effect: species and route not stated
neurons = conditions: cited from earlier work
[3] = cited from earlier work
[4] = cited from earlier work; remark: listed apart in the source
human = conditions: cited from earlier work
animal = conditions: in an animal; cited from earlier work
[5] = into a cerebral ventricle, rabbit; cited from earlier work
[6] = injected into an eyeball; axonal flow; cited from earlier work
[7] = administered into a cerebral ventricle

Nc1ncnc2c1ncn2[C@@H]1O[C@H](CO)[C@@H](O)[C@H]1O [Adenosine, adenosine]
sleep effect [1]: induce non-REM sleep

CCCCC[C@H](O)/C=C/[C@H]1C(=O)C[C@H](O)[C@@H]1C/C=C\CCCC(=O)O [PGD2, prostaglandin D2]
time when the mice started to move (mice; 100 μM): shifted backward | total activity ratio (mice; 100 μM, vs saline control): 78% | sleep effect [2]: strong sleep inducing substance

CCCCC[C@H](O)/C=C/[C@H]1[C@H](O)CC(=O)[C@@H]1C/C=C\CCCC(=O)O [PGE2, prostaglandin E2]
sleep effect [2]: inhibits sleep | sleep effect ([2]; listed as prostaglandin E2): sleep inhibiting activity

C1CCNCC1 [Piperidine, piperidine]
total activity ratio (mice; 100 μM, vs saline control): 72% | sleep effect [2]: sleep inducing activity

O=c1cc[nH]c(=O)[nH]1 [Uracil, uracil, reference compound]
locomotor activity (in words) (mice; 100 μM): did not decrease

O=c1ccn([C@@H]2O[C@H](CO)[C@@H](O)[C@H]2O)c(=O)[nH]1 [Uridine, uridine]
sleep inducing or inhibiting activity (in words) (mice; 100 μM): showed a sleep inducing activity | Total Activity ratio per hour (mice; 10 μM): 63 % of control | Total Activity ratio per hour (mice; 30 μM): 57 % of control | locomotor activity (in words) (mice; 100 μM): remarkably decreased | time when the mice started to move (mice; 100 μM): shifted backward | Total Activity ratio per hour (mice; 100 μM): 53 % of control | excitation of the neurons (neurons): induces or inhibits excitation of the neurons | sleep effect ([3]; injection of only 10 pmole into a cerebral ventricle): induces non-REM sleep

Nc1ccn([C@@H]2O[C@H](CO)[C@@H](O)[C@H]2O)c(=O)n1 [cytidine]
sleep inducing or inhibiting activity (in words) (mice; 100 μM): can inhibit sleep | locomotor activity (in words) (mice; 100 μM): completely disappeared temporarily after the instillation | pain or itch in the eyes as cause of the sleep inhibition (mice; 100 μM): not caused by a pain or an itch in the eyes | time when the mice started to move (mice; 100 μM): advanced | total activity ratio (mice; 100 μM, vs saline control): 127% | arousal hours [3, 7]: increase arousal hours | total sleep hours [3, 7]: decrease total sleep hours

N[C@@H](Cc1c[nH]c2ccccc12)C(=O)O [tryptophan]
effectiveness of oral administration [4]: somewhat effective

arginine vasotocin [AVT]
sleep effect (human; in a human): REM sleep | amount of serotonin in the brain ([2]; mechanism of sleep induction): increasing the amount of serotonin in the brain | sleep effect (animal): induces non-REM sleep

delta-sleep-inducing peptide [DSIP]
sleep inducing or inhibiting activity (in words) (mice; 100 μM): exerted a sleep inhibiting activity | pain or itch in the eyes as cause of the sleep inhibition (mice; 100 μM): certainly not due to any pain or itch in the eyes | total activity ratio (mice; 100 μM in saline containing 0.1% bovine serum albumin): 130% | sleep effect [5]: induce sleep | anti-stress activity (human; administered to a human): anti-stress activity such as causing sleep inhibition

horseradish peroxidase: an enzyme with a molecular weight of about 40,000, frequently used as a tracer
uptake by ganglion cells and transport to the suprachiasmatic nucleus [6]: uptaken by the ganglion cells, and then transported to the suprachiasmatic nucleus through the axonal flow
